“Also recorded” adds a separate entry of the source. Peptide text beside a SMILES is read from it. * marks the point of attachment. Cbz = O=C(OCc1ccccc1)*

One series has as its system IκB-α. The series can be described thus: Fate of IκB-α after TNF-α stimulation of human endothelial cells. In kind it is cell-based. As to conditions: TNF-α 10 ng/ml, 15 min; EET 100 nM. An excerpt: Co-treatment with [11,12]-EET prevented the nuclear accumulation of RelA. Since the nuclear translocation of RelA requires the degradation of its endogenous cytoplasmic inhibitor, inhibitor kappa B (IκB-α), we followed the fate of IκB-α after TNF-α stimulation in the presence or absence of [11,12]-EET. Stimulation of human endothelial cells with TNF-α caused a rapid and almost complete disappearance of IκB-α which was prevented by co-treatment with [11,12]-EET, but not [14,15]-EET.
A set of gel shift assays was performed. […] In some assays, [11,12]-EET (100 nM) was also added directly to the IKK assay (in vitro). As a control for nonspecific phosphorylation, the assay was performed without the addition of immunoprecipitated IKK (no enzyme) or in the presence of a IκB-α mutant (ΔSer 32, Ser 36→Thr) as substrate. The assay was performed three times with similar results.
Specificity of IKB was determined by the complete absence of phosphorylation when the mutated IκB-α substrate, GST-1κB-α (Δ32,36: S→T) which cannot be phosphorylated at serine residues 32 and 36, was substituted for wild-type GST-IκB-α.

Another series relates to VCAM-1 expression. The series can be described thus: Cell-surface enzyme immunoassay of cytokine-induced VCAM-1 expression in endothelial cells. It is filed as cell-based, human. As to conditions: human endothelial cells, 1-100 nM, TNF-α. How it is done: FIG. 2 is a set of bar graphs of cell-surface enzyme immunoassays. […] The difference between treatment with TNF-α alone and in the presence of [11,12]-EET were statistically significant (*p<0.05, **p<0.01), OD, optical density. […] After stimulation with TNF-α (10 ng/ml) in the presence or absence of EET, promoter activity was determined relative to basal activity. *p<0.01 vs. TNF-α alone.
To determine the biological effects of EETs, we treated tumor necrosis factor alpha (TNF-α)-stimulated human endothelial cells with physiological relevant concentrations (1-100 nM) of [5,6]-EET, [8,9]-EET, [11,12]-EET, [14,15]-EET, [11,12]-DHET.

The test system of series [1] is bovine aortic endothelial cells (BAECs). In words: Hypoxia-reoxygenation-induced cell injury in BAECs (cell number, LDH release, trypan blue). In kind it is cell-based. The note with it: 1 μmol/L, added 10 min prior to hypoxia (24 h hypoxia, 4 h reoxygenation). How it is done: Effects of P450-derived arachidonic acid metabolites on hypoxia-reoxygenalion-induced injury in BAECs. BAECs, either untransfected, or 48 hours after transfection with pcDNA3.1/GFP or pcDNA3.1/CYP2J2, or 10 min after treatment with eicosanoids, epoxide hydrolase inhibitors or vehicle, were exposed to hypoxia (95% nitrogen plus 5% carbon dioxide) for 24 hours, followed by reoxygenation (95% air plus 5% carbon dioxide) for 4 hours using an environmental chamber within a 37° C. incubator. Cells maintained under continuous (28 hours) normoxic conditions served as controls.
EETs were prepared by total chemical synthesis as previously described (Corey el al., 102 J. Am. Chem. Soc. 1433-1435 (1980), Falck et al., 23 Tetrahedron Lett. 1755-1756 (1982)). DHETs were prepared by chemical hydration of EETs as described by Capdevila et al., 187 Methods Enzymol. 386-394 (1990). Synthetic EETs and DHETs were purified by reverse-phase HPLC prior to use. BAECs, grown to ˜85% confluency, were treated with either synthetic [11,12]-EET, [11,12]-DHET, or [14,15]-EET in ethanol vehicle (1 μmol/L each, final concentration) for 10 min prior to exposure to hypoxia-reoxygenation. […] Cells treated with vehicle alone served as controls.
After hypoxia-reoxygenation, the cell number was determined using a hemocytometer and the degree of cell injury was assessed by measuring lactate dehydrogenase release into the culture medium using the CytoTox 96 Non-Radioactive Cytotoxicity Assay Kit (Promega, Madison, Wis.) and by counting the number of trypan blue dye stained cells. Data are expressed as a percentage of values obtained from control cells maintained under normoxic conditions.
Background: Release of lactate dehydrogenase indicates damage to the cell membrane.

Series [2] concerns mononuclear cell adhesion to carotid artery. The series can be described thus: TNF-α-induced mononuclear cell (U937) adhesion in the murine carotid artery. It is filed as in vivo. The note with it: mouse, intra-arterial infusion 100 ng/kg/min, TNF-α 10 μg/kg i.p., 5 hours. How it is done:
FIG. 3A is a graph showing the expression of VCAM-1 in the murine carotid artery at 5 hours after treatment with intraperitaneal injection of TNF-α (10 μg/kg) alone or in combination with continuous intra-arterial infusion of [11,12]-EET (100 ng/kg/min). FIG. 3B is a bar graph showing the effect of [11,12]-EET on TNF-α induced mononuclear cell adhesion in the murine carotid artery. The mononuclear cells (U937) were perfused through the carotid artery at a wall shear stress of 3 dyn/cm^2. Intra-arterial infusion of vehicle (saline) or [14,15]-EET (100 ng/kg/min) had no effect. […] All experiments except the [14,15]-EET infusion were performed in duplicate.
To determine the functional relevance of EETs in vascular inflammation, we tested [11,12]-EET and its regioisomer [14,15]-EET in a recently developed in vivo model of TNF-α-induced VCAM-1 -mediated mononuclear cell adhesion in the murine carotid artery. […]
Cell rolling and adhesion were recorded on videotape using stroboscopic epifluoresence illumination with an introvital microscope (objective Zeiss 20×, 0.5 numerical aperture). […] In separate experiments, VCAM-1 expression was measured in paraffin-sections (5 μm thick) of carotid arteries harvested from mice treated in the same way. […]

The target of series [3] is mutated IκB-α substrate GST-IκB-α (Δ32,36: S→T) (UniProt P25963).
Series [4] concerns the target purified GST-IκB-α fusion protein (wild-type) (UniProt P25963).

purified GST-IκB-α fusion protein (wild-type), sequence (P25963 1-54): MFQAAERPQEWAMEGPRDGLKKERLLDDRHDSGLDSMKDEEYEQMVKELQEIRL
mutated IκB-α substrate GST-IκB-α (Δ32,36: S→T), sequence (P25963 other isoform, or with tags, fused parts or gaps mutant): as the sequence (P25963 1-54) above, with S32T, S36T counted along it

For `CC(C)C[C@@H](C=O)NC(=O)[C@H](CC(C)C)NC(=O)[C@H](CC(C)C)NC(=O)OCc1ccccc1` [MG132, reference compound] (Cbz-Leu-Leu-Leu-aldehyde), the “effect on TNF-α-induced disappearance/degradation of IκB-α” value in the series on IκB-α is recorded as “prevented”.

Take `CCCCCC1OC1C/C=C\C/C=C\C/C=C\CCCC(=O)O` (stereo not drawn) [[14,15]-EET]: the “inhibition of TNF-α-induced VCAM-1 expression (rank/words)” value in the series on VCAM-1 expression was “did not inhibit”. Also, the “hypoxia-reoxygenation-induced cell injury, number of trypan blue stained cells” value in series [1] is “active in attenuating; also recorded: significantly attenuates”. Further, in series [2], the “mononuclear cell adhesion to the vessel wall” value is on record as “had no effect”.

Turning to “IκB kinase (IKK) immunoprecipitated from human endothelial cells”, the “IKK activity (phosphorylation of mutated substrate)” value in series [3] was “complete absence of phosphorylation when the mutated IκB-α substrate, GST-1κB-α (Δ32,36: S→T) which cannot be phosphorylated at serine residues 32 and 36, was substituted for wild-type GST-IκB-α”. The “IKK activity (phosphorylation of GST-IκB-α substrate)” value in series [4] is on record as “Stimulation with TNF-α caused an increase in IKK activity”.

The record behind these values is US6916843B1, “Anti-inflammatory actions of cytochrome P450 expoxygenase-derived eicosanoids” (The United States of America as represented by the …, priority 1999, dated 2005).
